From US6703421B1, “Methods of using phenylmethylbenzoquinone and hydroquinone compounds for treatment of myocarditis, dilated cardiomyopathy and heart failure” (Daiichi Suntory Pharma Co., Ltd., priority 1999, dated 2004)
Read-outs that look alike come from different tables or passages of the source.

How the values were obtained:
rat adjuvant arthritis = conditions: Pierce J W, et al. (1997) J. Biol. Chem. 272, 21096-21103; cited from earlier work
TNF-α = TNF-α mRNA level in heart by TaqMan PCR, murine myocarditis model; format: in vivo, mouse; conditions: 30 mg/kg intraperitoneally daily for 5 days, heart day 5, corrected with GAPDH, vs infected control; FIG. 6
Protocol: (§1) Four-week-old DBA/2 male mice were inoculated with EMC virus in the same manner as Example 3 followed by intraperitoneal administration of the compound of Production Example 7 dissolved in 10% DMSO or 10% DMSO only daily for 5 days starting 2 hours after inoculation. The whole hearts were excised from mice of the Production Example 7 compound group, 10% DMSO group and non-infected group on day 5 of viral infection, and after extracting RNA using ISOGEN (Wako Pure Chemical Industries), cDNA was obtained in accordance with the procedure of the SuperScript Preamplification System (Lifetech Oriental). The mRNA levels of TNF-α, IL-1β and iNOS were assayed by TaqMan PCR using this cDNA as templates. Detection was performed using the PRISM7700 (PE Biosystems Japan) in accordance with the protocol of the PCR assay system (PE Biosystems Japan). The following primers and TaqMan probes were used for detection.
(§2) The amount of RNA of each sample was corrected with the amount of glyceraldehyde-3-phosphate dehydrogenase (GAPDH) gene.
(§3) Infected group (administered compound of Production Example 7) (n=10) Administration of NF-κB inhibitor (Production Example 7) at 30 mg/kg body weight

[1] = tested on: EMC virus-inoculated DBA/2 mice (viral myocarditis); test: Survival rate in murine viral myocarditis model; format: in vivo, mouse; conditions: 10% DMSO, Kaplan-Meier p<0.05, FIG. 3
Protocol: Viral myocarditis mice were prepared using the procedure described below in accordance with a known method (Shioi T. et al. (1997) J. Mol. Cell. Cardiol., 29, 2327-2334). Variant M (acquired from the American Type Culture Collection) was used for the EMC virus for inoculation and prepared to 100 pfu/ml in Eagle's MEM medium (Nissui Pharmaceutical). Four-week-old DBA/2 male mice were divided into two groups, and intraperitoneally inoculated with EMC virus at 10 pfu/animal. Test compound was then administered intraperitoneally and daily for 14 days under the following conditions to each group starting 3 hours after inoculation.
The test compound was used after dissolving in 0.5% aqueous gum arabic solution (3 mg/ml). In the present example, the compound of Production Example 4 was used in the test as the NF-κB inhibitor.
Test group (n=10): Administration of NF-κB inhibitor (Production Example 4) at 30 mg/kg body weight Control group (n=10): 0.5% aqueous gum arabic solution
The experiment was conducted in the following three groups using the same method as Example 2 and the compound of Production Example 7 for the NF-κB inhibitor. The test compound was used after dissolving in 10% aqueous dimethylsulfoxide solution (DMSO) (test group 1: 0.3 mg/ml, test group 2: 3 mg/ml). The survival rates were tested for the presence of a significant difference according to the Kaplan-Meier method, and statistical significance was defined as p<0.05.
Test group 1 (n=21): Administration of NF-κB inhibitor (Production Example 7) at 3 mg/kg body weight
Test group 2 (n=21): Administration of NF-κB inhibitor (Production Example 7) at 30 mg/kg body weight
Four-week-old DBA/2 male mice were inoculated with EMC virus using the same method as Example 2, and the test compound was administered orally and daily for 14 days under the following conditions to each group starting 2 hours after inoculation.
The test compound was used after dissolving in 10% aqueous sulfobutylcyclodextrin solution (3 mg/ml). In the present example, the compound of Production Example 44 was used in the test as the NF-κB inhibitor.
Test group (n=20): Administration of NF-κB inhibitor (Production Example 44) at 30 mg/kg body weight

NF-κB = NF-κB luciferase reporter assay in A549/NF-κBLuc cells; format: cell-based, human; conditions: Homo sapiens, A549/NF-κBLuc, luciferase activity
Protocol: Using lipofectamine (Lifetech Oriental K. K., Tokyo) according to the conventional method, human lung cancer cell line A549 cells (ATCC catalog no. CCL185), which are known to express hiNOS by cytokine stimulation, were co-transfected with pNFκB-Luc, which are plasmid controlled by a NF-κB binding consensus sequence, and pSV2neo (Clontech, U.S.A.), and then A549/NF-κBLuc, the cell that has stably introduced pNFκB-Luc, was selected by adding G418 sulfate (1 mg/ml, Lifetech Oriental K. K.) to the culture medium.
The luciferase activity was measured using the Luciferase Assay System (Promega, U.S.A.).

iNOS = iNOS mRNA level in heart by TaqMan PCR, murine myocarditis model; format: in vivo, mouse; conditions: 30 mg/kg intraperitoneally daily for 5 days, heart day 5, corrected with GAPDH, vs infected control; FIG. 6
Protocol: as §1, §2, §3

[2] = tested on: EMC virus-inoculated DBA/2 mice (viral myocarditis); test: Histopathology of heart (cardiac necrosis, cellular infiltration) in murine myocarditis model; format: in vivo, mouse; conditions: 30 mg/kg, hearts on days 7 and 8, score 0-4, vs control group; FIG. 5
Protocol: NF-κB inhibitor (compound of Production Example 7) was administered at 30 mg/kg body weight using the similar method as Example 3 to the mouse myocarditis model prepared in the similar manner as Example 2. The whole hearts of those mice alive on days 7 and 8 (n=10) were extripated, exsanguinated and washed with phosphate-buffered saline. Subsequently, paraffin embedded and sectioned specimens were prepared by fixing the tissue with 10% formalin. The specimens were stained with hematoxylin-eosin stain followed by examination of histopathological findings.
In cross-sectional images taken along the minor axis of the left ventricle under light microscopy, the percentage of cardiac necrosis features or cellular infiltration was classified into 0 (no damage), 1 (less than 25%), 2 (25% to less than 50%), 3 (50% to less than 75%) and 4 (75% or more), and respectively observed by two observers. The evaluations of the two observers were averaged to obtain a single evaluation. The results obtained were tested for the presence of a significant difference by analysis of variance (ANOVA) according to Bonferroni's multiple comparison method, and statistical significance was defined as p<0.05.
Test group (n=10): Administration of NF-κB inhibitor (Production Example 7) at 30 mg/kg body weight

IL-1β = IL-1β mRNA level in heart by TaqMan PCR, murine myocarditis model; format: in vivo, mouse; conditions: 30 mg/kg intraperitoneally daily for 5 days, heart day 5, corrected with GAPDH, vs infected control; FIG. 6
Protocol: as §1, §2, §3

| IC50 (NF-κB; IL-1β (1 ng/ml) for 4 hours, read-out: IC50 (μM) IL-1 stimulation) [µM] | IC50 (NF-κB; TNF-α (500 ng/ml) for 4 hours, read-out: IC50 (μM) TNF stimulation) [µM] | Compound | effect in rat adjuvant arthritis (rat adjuvant arthritis) | expression of TNF-α at the mRNA level (TNF-α) | survival rate ([1]; 3 mg/kg intraperitoneally daily for 14 days) | survival rate ([1]; 30 mg/kg intraperitoneally daily for 14 days) | expression of iNOS at the mRNA level (iNOS) | cardiac necrosis [2] | cellular infiltration [2] | expression of IL-1β at the mRNA level (IL-1β) |
| --- | --- | --- | --- | --- | --- | --- | --- | --- | --- | --- |
| – | – | CC(C)(C)c1ccc(S(=O)(=O)/C=C/C#N)cc1 [BAY11-7083] | exhibit an effect | – | – | – | – | – | – | – |
| 4 | 10 | COC1=C(OC)C(=O)C(Cc2ccc(CCC(=O)N3CCCCC3)cc2)=C(C)C1=O [Prod. Ex. 7] | – | significantly inhibited | significantly improve survival rate | significantly improve survival rate | significantly inhibited | significantly inhibited | significantly inhibited | significantly inhibited |
